Experiments:
CYP2C19 = target: T1, CYP2C19 (Homo sapiens, UniProt P33261); assay: CYP isoenzyme activity inhibition in human liver microsomes, CYP2C19; assay type: in vitro ADME; details: 10 µM compound; human liver microsomes 0.25 mg/mL; relative to control without compound
T1 construct: human liver microsomes (0.25 mg/mL); from tissue; host or cells: human liver microsomes
Procedure: (§1) The CYP isoenzyme activity inhibitory effect by the compounds prepared according to Examples 1 to 46 was confirmed. Specifically, human liver microsomes (0.25 mg/mL), 0.1 M phosphate buffer solution (pH 7.4), a substrate drug cocktail of five drug metabolizing enzymes (Phenacetin 50 µM, Diclofenac 10 µM, S-mephenytoin 100 µM, Dextromethorphan 5 µM, and Midazolam 2.5 µM), and the compounds were added at concentrations of 0 or 10 µM, respectively, and pre-incubated at 37°C for 5 minutes, and then NADPH generation system solution was added and incubated at 37°C for an additional 15 minutes. Thereafter, an acetonitrile solution containing an internal standard (Terfenadine) was added to terminate the reaction, and after centrifugation for 5 minutes (14,000 rpm, 4°C), the supernatant was injected into an LC-MS/MS system to simultaneously analyze the metabolites of the substrate drugs, thereby evaluating the drug metabolizing enzyme inhibitory activity.
(§2) The metabolites of each CYP isoenzyme marker drug generated through the reaction were analyzed using a Shimadzu Nexera XR system and TSQ vantage (Thermo). A Kinetex C18 (2.1 × 100 mm, 2.6 µm, particle size; Phenomenex, USA) was used as the HPLC column, and (A) distilled water containing 0.1% formic acid and (B) acetonitrile containing 0.1% formic acid were used as mobile phases, and a gradient program as shown in Table 6 below was applied.
(§3) The generated metabolites were quantified using MRM (Multiple Reaction Monitoring) quantitative mode, and Xcalibur (version 1.6.1) was used for data analysis. To show the CYP isoenzyme activity inhibitory effect of the novel compounds prepared according to the Examples of the disclosure, the % activity of CYP isoenzymes relative to the control group without compound addition is shown in Table 6 below. Additionally, to confirm the difference in effect according to substituents, Comparative Compounds 1 and 5, which are two compounds that share a similar parent nucleus structure with Compounds 1 to 46 of the disclosure while Cy is substituted with aromatic heteroaryl instead of saturated heterocyclyl, were selected as comparative compounds and their activities are shown together.

[1] = Liver microsomal stability, human; assay type: in vitro ADME; details: 1 µM compound; 0.5 mg/mL microsomes; NADPH; 30 minutes at 37°C
Procedure: (§4) Liver microsomal stability by the compounds prepared according to Examples 1 to 46 was confirmed. Specifically, four types of liver microsomes (human, dog, rat, and mouse each at 0.5 mg/mL), 0.1 M phosphate buffer solution (pH 7.4), and the compounds at 1 µM concentration were added and pre-incubated at 37°C for 5 minutes, and then NADPH generation system solution was added and incubated at 37°C for an additional 30 minutes. Thereafter, an acetonitrile solution containing an internal standard (chloropropamide) was added to terminate the reaction, and after centrifugation for 5 minutes (14,000 rpm, 4°C), the supernatant was injected into an LC-MS/MS system to analyze the substrate drug, thereby evaluating the metabolic stability of 8 compounds.
(§5) The amount of remaining substrate through the reaction was analyzed using a Shimadzu Nexera XR system and TSQ vantage (Thermo). A Kinetex XB-C18 (2.1 × 100 mm, 2.6 µm, particle size; Phenomenex, USA) was used as the HPLC column, and (A) distilled water containing 0.1% formic acid and (B) acetonitrile containing 0.1% formic acid were used as mobile phases. Analyst software (version 1.6.3) and Xcalibur (version 1.6.1) were used for data analysis. The calculated results are shown in Table 5 below: Liver microsomal stability data of novel compounds from […] (human, rat, and mouse).

TDP-43 BiFC cells = assay: Cell viability (stained nuclei count) in TDP-43-BiFC cells; assay type: cell-based; details: Forskolin-only group = 100%
Procedure, shortened: (§6)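 Forskolin (30 µM) co-treated with compound (screen 3 and 10 µM; dose-response 0.003–10 µM) for 48 h. BiFC fluorescence normalised to Forskolin-only (100% aggregation) minus untreated; viability from Hoechst-stained nuclei count vs Forskolin-only. IC50 by nonlinear regression.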

CYP3A4 = target: T2, CYP3A4 (Homo sapiens, UniProt P08684); assay: CYP isoenzyme activity inhibition in human liver microsomes, CYP3A4; assay type: in vitro ADME; details: 10 µM compound; human liver microsomes 0.25 mg/mL; relative to control without compound
T2 construct: human liver microsomes (0.25 mg/mL); from tissue; host or cells: human liver microsomes
T2 sequence (P08684 whole entry): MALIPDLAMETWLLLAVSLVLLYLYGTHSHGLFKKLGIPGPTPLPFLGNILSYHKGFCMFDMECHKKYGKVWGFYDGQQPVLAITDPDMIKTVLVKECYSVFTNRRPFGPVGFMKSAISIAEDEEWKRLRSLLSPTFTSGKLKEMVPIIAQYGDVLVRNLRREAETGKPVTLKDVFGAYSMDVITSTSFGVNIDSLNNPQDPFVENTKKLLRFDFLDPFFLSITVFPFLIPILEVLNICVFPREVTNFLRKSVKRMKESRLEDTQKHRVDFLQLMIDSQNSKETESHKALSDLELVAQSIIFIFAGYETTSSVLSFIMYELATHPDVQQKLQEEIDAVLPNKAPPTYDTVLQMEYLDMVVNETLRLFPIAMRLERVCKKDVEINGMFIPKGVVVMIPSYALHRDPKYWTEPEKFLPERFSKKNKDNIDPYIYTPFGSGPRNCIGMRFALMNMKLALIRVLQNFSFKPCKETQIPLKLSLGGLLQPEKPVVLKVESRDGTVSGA
Procedure: as §1, §2, §3

TDP-43 protein = target: T3, TDP-43 protein (Homo sapiens, UniProt Q13148); assay: TDP-43 aggregation inhibition in TDP-43-BiFC cell model (Forskolin-induced); assay type: cell-based; details: for inhibition at 3 µM: read-out: TDP-43 protein aggregation inhibitory effect: Aggregation inhibitory effect (%) (@3 uM)
T3 construct: BiFC fluorescent-protein fragments (two complementary halves); expressed in transfected cells
T3 sequence (Q13148 whole entry, the tested form may be a part): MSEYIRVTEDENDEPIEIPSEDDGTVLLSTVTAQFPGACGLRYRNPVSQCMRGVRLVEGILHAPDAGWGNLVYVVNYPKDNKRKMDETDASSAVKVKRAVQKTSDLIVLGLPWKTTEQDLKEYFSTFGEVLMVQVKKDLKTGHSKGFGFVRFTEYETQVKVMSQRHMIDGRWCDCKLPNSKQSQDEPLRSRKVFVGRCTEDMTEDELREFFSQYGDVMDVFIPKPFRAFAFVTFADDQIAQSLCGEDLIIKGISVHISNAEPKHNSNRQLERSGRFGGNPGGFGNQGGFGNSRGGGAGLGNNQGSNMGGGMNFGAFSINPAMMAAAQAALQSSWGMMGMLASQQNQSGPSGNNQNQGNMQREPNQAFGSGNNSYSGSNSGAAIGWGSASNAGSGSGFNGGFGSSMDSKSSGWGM
Procedure, shortened: as §6

[2] = Liver microsomal stability, rat; assay type: in vitro ADME; details: 1 µM compound; 0.5 mg/mL microsomes; NADPH; 30 minutes at 37°C
Procedure: as §4, §5

T1 sequence (P33261 whole entry): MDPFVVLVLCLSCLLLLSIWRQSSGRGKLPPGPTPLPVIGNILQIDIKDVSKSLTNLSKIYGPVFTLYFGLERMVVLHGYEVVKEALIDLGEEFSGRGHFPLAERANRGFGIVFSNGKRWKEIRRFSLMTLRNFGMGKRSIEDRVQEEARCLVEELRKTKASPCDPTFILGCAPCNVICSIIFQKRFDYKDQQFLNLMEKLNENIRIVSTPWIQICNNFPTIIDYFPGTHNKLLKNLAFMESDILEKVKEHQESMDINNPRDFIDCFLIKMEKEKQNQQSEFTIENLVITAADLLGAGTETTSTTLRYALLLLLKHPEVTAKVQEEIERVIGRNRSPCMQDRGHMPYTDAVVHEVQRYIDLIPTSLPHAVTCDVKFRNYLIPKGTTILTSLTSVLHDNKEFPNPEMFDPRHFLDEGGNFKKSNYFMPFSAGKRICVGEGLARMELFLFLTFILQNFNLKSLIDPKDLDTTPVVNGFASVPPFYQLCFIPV

CC1CN(c2nc3ccc(NN=C(C#N)C#N)cc3o2)CCO1 (centres unmarked) [Compound 15, (2-(2-methylmorpholino)benzo[d]oxazol-6-yl)carbonohydrazonoyl dicyanide]
CYP2C19 (% activity) (CYP2C19): 87.9 % activity
Human microsomes (% remaining) [1]: > 100 % remaining
Cell viability (%) (@ 3 uM) (TDP-43 BiFC cells): 105.2%
CYP3A4 (% activity) (CYP3A4): 87.3 % activity
inhibition at 3 µM (TDP-43 protein): 97.5%
Rat microsomes (% remaining) [2]: 60 % remaining

CC1COCCN1c1nc2ccc(NN=C(C#N)C#N)cc2o1 (centres unmarked) [Compound 16, (2-(3-methylmorpholino)benzo[d]oxazol-6-yl)carbonohydrazonoyl dicyanide]
CYP2C19 (% activity) (CYP2C19): > 100 % activity
Human microsomes (% remaining) [1]: 79.8 % remaining
Cell viability (%) (@ 3 uM) (TDP-43 BiFC cells): 97.8%
CYP3A4 (% activity) (CYP3A4): 96.7 % activity
inhibition at 3 µM (TDP-43 protein): 100%
Rat microsomes (% remaining) [2]: 49.6 % remaining

N#CC(C#N)=NNc1ccc2nc(NC(=O)N3CCOCC3)sc2c1 [Compound 38, (2-(morpholine-4-carboxamido)benzo[d]thiazol-6-yl)carbonohydrazonoyl dicyanide]
CYP2C19 (% activity) (CYP2C19): 80 % activity
Human microsomes (% remaining) [1]: 87.6 % remaining
Cell viability (%) (@ 3 uM) (TDP-43 BiFC cells): 111.9%
CYP3A4 (% activity) (CYP3A4): 86.7 % activity
inhibition at 3 µM (TDP-43 protein): 49.6%
Rat microsomes (% remaining) [2]: 96.0 % remaining

CCn1c(N2CCOCC2)nc2ccc(NN=C(C#N)C#N)cc21 [Compound 32, (1-ethyl-2-morpholino-1H-benzo[d]imidazol-6-yl)carbonohydrazonoyl dicyanide]
CYP2C19 (% activity) (CYP2C19): 77.1 % activity
Human microsomes (% remaining) [1]: 95.5 % remaining
Cell viability (%) (@ 3 uM) (TDP-43 BiFC cells): 59.7%
CYP3A4 (% activity) (CYP3A4): 73 % activity
IC50 (TDP-43 protein): 99 nM
inhibition at 3 µM (TDP-43 protein): 95.4%
Rat microsomes (% remaining) [2]: 81.7 % remaining

CC1CN(c2nc3ccc(NN=C(C#N)C#N)cc3o2)CC(C)O1 (centres unmarked) [Compound 18, (2-(2,6-dimethylmorpholino)benzo[d]oxazol-6-yl)carbonohydrazonoyl dicyanide]
CYP2C19 (% activity) (CYP2C19): 100 % activity
Human microsomes (% remaining) [1]: 95.8 % remaining
Cell viability (%) (@ 3 uM) (TDP-43 BiFC cells): 102.1%
CYP3A4 (% activity) (CYP3A4): 94.6 % activity
inhibition at 3 µM (TDP-43 protein): 98.6%
Rat microsomes (% remaining) [2]: 72.9 % remaining

Cn1c(N2CCOCC2)nc2cc(NN=C(C#N)C#N)ccc21 [Compound 6, (1-methyl-2-morpholino-1H-benzo[d]imidazol-5-yl)carbonohydrazonoyl dicyanide]
CYP2C19 (% activity) (CYP2C19): 98.4 % activity
Human microsomes (% remaining) [1]: 90 % remaining
Cell viability (%) (@ 3 uM) (TDP-43 BiFC cells): 98.1%
CYP3A4 (% activity) (CYP3A4): 96.7 % activity
inhibition at 3 µM (TDP-43 protein): 97.4%
Rat microsomes (% remaining) [2]: 66.1 % remaining

N#CC(C#N)=NNc1ccc2nc(N3C4CCC3COC4)oc2c1 [Compound 20, (2-(3-oxa-8-azabicyclo[3.2.1]octan-8-yl)benzo[d]oxazol-6-yl)carbonohydrazonoyl dicyanide]
CYP2C19 (% activity) (CYP2C19): 51.8 % activity
Human microsomes (% remaining) [1]: > 100 % remaining
Cell viability (%) (@ 3 uM) (TDP-43 BiFC cells): 75.4%
CYP3A4 (% activity) (CYP3A4): 55.4 % activity
IC50 (TDP-43 protein): 140 nM
inhibition at 3 µM (TDP-43 protein): 91.7%
Rat microsomes (% remaining) [2]: 82.9 % remaining

CC1CN(c2nc3ccc(NN=C(C#N)C#N)cc3s2)CCO1 (centres unmarked) [Compound 12, (2-(2-methylmorpholino)benzo[d]thiazol-6-yl)carbonohydrazonoyl dicyanide]
CYP2C19 (% activity) (CYP2C19): 84.8 % activity
Human microsomes (% remaining) [1]: 62.7 % remaining
Cell viability (%) (@ 3 uM) (TDP-43 BiFC cells): 73.0%
CYP3A4 (% activity) (CYP3A4): 78.9 % activity
inhibition at 3 µM (TDP-43 protein): 100%
Rat microsomes (% remaining) [2]: 70.1 % remaining

Source: patent EP4737445A1, “NOVEL SATURATED HETEROCYCLE-SUBSTITUTED HETEROARYL-CARBONOHYDRAZONOYL DICYANIDE COMPOUND AND USE THEREOF” (Korea Institute of Science and Technology, priority 2023, dated 2025)
